Data set [1] concerns Candida parapsilosis ATCC 22019. Briefly: MIC microbroth dilution (CLSI), extra control strain. In kind it is cell-based. The note with it: C. parapsilosis ATCC 22019; RPMI 1640. The method, then: Yeast and filamentous fungal MIC were performed in MOPS buffered RPMI 1640 medium (MOPS buffer obtained from Sigma Aldrich Ltd., RPMI 1640 obtained from Invitrogen Ltd, Paisley, Scotland). The yeast inocula were in the range 7.5×10^2-4×10^3 CFU/mL and the filamentous fungi approximately 8×10^3-1×10^5 CFU/mL
(In general: In broth dilution the organism is exposed to a series of concentrations in liquid medium.)

The subject of data set [2] is Eggerthella lenta - ATCC 43055. The description is as above. As to conditions: SBB. Details: unit not given here. The format is cell-based.
Data set [3] has as its system Methicillin resistant Staphylococcus aureus (MRSA) strain ATCC 33591. The note with it: for MIC MRSA: MRSA ATCC 33591.
For data set [4], the system named is Methicillin resistant Staphylococcus epidermidis (MRSE) strain ATCC 27626. The note with it: for MIC MRSE: MRSE ATCC 27626.
In data set [5] the test system is Staphylococcus aureus, strain ATCC 25923. As to conditions: for MIC S. aureus: Staphylococcus aureus ATCC 25923.
Data set [6] relates to Bacteroides fragilis - ATCC 25285. The data set can be described thus: MIC microbroth dilution (CLSI), extra control strain. The note with it: B. fragilis ATCC 25285; SBB. Details: unit not given here. The format is cell-based.
Data set [7] concerns Salmonella sp - antibiotic-susceptible clinical isolate. Briefly: MIC microbroth dilution (CLSI). The format is cell-based. The source says:
(§1) Cation-adjusted Mueller-Hinton broth (Oxoid Ltd., Basingstoke, UK and Trek Diagnostic Systems Ltd., East Grinstead, UK) (supplemented with 5% laked horse blood for Streptococcus spp., Corynebacterium jeikeium and Listeria monocytogenes) was used for aerobic bacteria, with an initial inoculum of approximately 10^5 colony-forming units (CFU)/mL.

For data set [8], the system named is Salmonella sp - multi-drug resistant clinical isolate. Briefly: MIC microbroth dilution (CLSI). The format is cell-based.
Description: as §1

The test system of data set [9] is Shigella sp - antibiotic-susceptible clinical isolate. Briefly: MIC microbroth dilution (CLSI). The format is cell-based.
Description: as §1

Data set [10] relates to Haemophilus influenzae - ATCC 47247. Briefly: MIC microbroth dilution (CLSI), extra control strain. Details: unit not given beside the values. The note with it: H. influenzae ATCC 47247; HTM.
Data set [11] has as its system Moraxella catarrhalis - reduced fluoroquinolone susceptibility clinical isolate. The format is cell-based. As to conditions: M. catarrhalis reduced fluoroquinolone susceptibility.
Description: as §1

For data set [12], the system named is Moraxella catarrhalis - β -lactamase positive clinical isolate. In kind it is cell-based. As to conditions: M. catarrhalis β-lactamase positive.
Description: as §1

Data set [13] has as its system Streptococcus pyogenes - Macrolide (M-type) resistance clinical isolate. The format is cell-based. The note with it: S. pyogenes Macrolide (M-type) resistance.
Description: as §1

The test system of data set [14] is Clostridium difficile - antibiotic-susceptible clinical isolate. The data set can be described thus: MIC microbroth dilution (CLSI). As to conditions: C. difficile. In kind it is cell-based. Set-up: unit not given beside the values. The method, then:
Supplemented Brucella broth (SBB) was used for the anaerobic strains with an inoculum of approximately 10^6 CFU/mL. SBB is a broth consisting of 1% peptone, 0.5% ‘Lab-lemco’, 1% glucose and 0.5% sodium chloride supplemented with 5 […] vitamin K (both obtained from Sigma Aldrich Ltd.)

Data set [15] concerns Streptococcus pyogenes CS301. The data set can be described thus: Murine skin infection model, topical treatment. The format is in vivo. As to conditions: mice. As to the method:
(§2) The skin of mice was infected with Staphylococcus aureus or Streptococcus pyogenes and subsequently given a total of three treatments at three hourly intervals. Three hours after the last treatment, skin biopsies were collected and the number of colony forming units (CFUs) present in the skin sample was determined. Results are shown in FIGS. 1 and 2, expressed as the number of colony forming units per mouse.
(§3) The skin of mice was infected with Staphylococcus aureus or Streptococcus pyogenes and subsequently given a total of three treatments at three hourly intervals. Three hours after the last treatment, skin biopsies were collected and the number of colony forming units (CFUs) present in the skin sample was determined. Results are shown in FIGS. 3, 4 and 5 expressed as the number of colony forming units per mouse.

The test system of data set [16] is Staphylococcus aureus FDA486. The data set can be described thus: Murine skin infection model, topical treatment. The format is in vivo. As to conditions: mice; cream or gel containing 2% (w/w); three treatments at three hourly intervals; biopsy three hours after last. The method, then:
as §2, §3

A short description of data set [17]: Solubility in organic solvents. As to conditions: THF and chloroform. The format is physicochemical. As to the method:
Alternatively, both the compound of Formula (I) and the polymer may be dissolved in a single solvent, either prior to mixing, at the time or mixing or after mixing. Suitable solvents for this approach include THF and chloroform. It may be necessary to combine the compound of Formula (I) with the solvent, e.g. THF, for a long time, e.g. at least 4 hours, preferably at least 12 hours, maybe 1 or more days, possibly up to 7 or 14 days.
The Resomer RG502 bioresorbable polymer material and AMC-109 were separately dissolved in THF in such a manner that amount of AMC-109 compared to the bioresorbable polymer in the final painting solution was 5%. The dissolution of AMC-109 in THF takes several hours.
The Resomer L2065 bioresorbable polymer material and AMC-109 were separately dissolved in dichloromethane and chloroform, respectively. The ratio between AMC-109 and L2065 was the same as above.

For another data set, the system named is S. pyogenes. As to conditions: Table 5.
A further data set has as its system C. albicans. The note with it: Table 5.
The next data set has as its system P. aeruginosa. As to conditions: Table 5.
The next data set relates to E. coli. The note with it: Table 5.

Converted amounts (≈) assume the structure as drawn. Where two headings read alike, the source gives them in different places. Residues, ends and D or L forms follow the SMILES beside them. *: point of attachment. NHPhenethyl = c1ccc(CCN*)cc1 Some results are limits rather than exact numbers.

As to `N=C(N)NCCCC(N)C(=O)NC(Cc1ccc(-c2ccc3ccccc3c2)cc1)C(=O)NC(CCCNC(=N)N)C(=O)NCCc1ccccc1` (stereo not shown) [Compound 1], the “MIC (control strain)” value came to 4 in data set [1], 16 in data set [2], 64 in data set [6] and 32 in data set [10]. Also, the “MIC MRSA” value in data set [3] is less than 3 µM. Moreover, the “MIC MRSE” value in data set [4] was less than 3 µM. In addition, the “MIC S. aureus” value in data set [5] turned out to be 4 µM (≈ 2.83 µg/mL). Besides, the MIC is 16 in data set [7]; 16 in [8]; 32 in data set [9]; 8 in [11]; 4 in data set [12]; 32 in data set [13]. The MIC in data set [14] turned out to be 32.
Take `CC(C)(C)c1cc(C(C)(C)C)c2[nH]c(C(C)(C)C)c(CC(NC(=O)C(N)CCCNC(=N)N)C(=O)NC(CCCNC(=N)N)C(=O)NCCc3ccccc3)c2c1` (stereo not drawn) [Compound 2, Arg-Tbt-Arg-NHCH2CH2Ph]: the “number of CFUs in skin biopsy vs placebo gel and bactroban” value in data set [15] (1% or 2% gel, three treatments at three hourly intervals) is “more effective at reducing the number of CFUs than the placebo gel or the bactroban”. Further, the “number of CFUs in skin biopsy, 2% gel compared with 1% gel” value in data set [15] (2% gel vs 1% gel) was “more effective than the gel containing only 1% of compound 2”. For the same molecule, the “number of CFUs in skin biopsy vs placebo” value in data set [16] is recorded as “the number of CFUs was reduced”. For the same molecule, the “MIC (control strain)” value in data set [1] amounted to 8; in [2] it was 32; in [6], 64; in [10] it was 4. Further, in data set [17], the solubility entry was “soluble in THF and chloroform”. The MIC in [7] worked out at 8; in [8] it was 8; in data set [9], 8; in [11], 8; in [12], 4; in data set [13], 16. In data set [14], this molecule had an MIC of 16.
As for `N=C(N)NCCC[C@H](NC(=O)[C@H](Cc1c[nH]c2ccccc12)NC(=O)[C@@H](N)CCCNC(=N)N)C(=O)NCCc1ccccc1` [Compound 6, reference compound] (H-Arg-Trp-Arg-NHPhenethyl; N-terminus assumed), the “MIC MRSA” value in [3] amounted to 97 µM (≈ 60.1 µg/mL). Moreover, the “MIC MRSE” value in [4] was 81 µM (≈ 50.2 µg/mL). In addition, the “MIC S. aureus” value in data set [5] turned out to be 145 µM (≈ 89.9 µg/mL).
Regarding `CCCCNC(=O)[C@H](CCCNC(=N)N)NC(=O)[C@H](Cc1c(C(C)(C)C)[nH]c2c(C(C)(C)C)cc(C(C)(C)C)cc12)NC(=O)[C@@H](N)CCCNC(=N)N` [Compound 9], in the data set with S. pyogenes, the “S. pyogenes (MIC)” value amounted to 2 mg/L. For the same molecule, the “MRSA (MIC)” value in data set [3] (ATCC 33591) is listed as 3 mg/L. Moreover, the “MRSE (MIC)” value in [4] (ATCC 27626) is less than 2 mg/L. The “C. albicans (MIC)” value with C. albicans turned out to be 10 mg/L. Also, the “S. aureus (MIC)” value in data set [5] (ATCC 25923) is recorded as 2 mg/L.
For the molecule `CCCNC(=O)[C@H](CCCNC(=N)N)NC(=O)[C@H](Cc1c(C(C)(C)C)[nH]c2c(C(C)(C)C)cc(C(C)(C)C)cc12)NC(=O)[C@@H](N)CCCNC(=N)N` [Compound 10], the “S. pyogenes (MIC)” value in the data set on S. pyogenes is listed as 2 mg/L. Besides, the “MRSA (MIC)” value in data set [3] (ATCC 33591) came out at 3 mg/L. In addition, in [4] (ATCC 27626), the “MRSE (MIC)” value was less than 2 mg/L. The “C. albicans (MIC)” value in the data set with C. albicans amounted to 10 mg/L. Further, the “S. aureus (MIC)” value in [5] (ATCC 25923) is 2 mg/L.
On to `CCCCCCCCCCCCCCCCNC(=O)[C@H](CCCNC(=N)N)NC(=O)[C@H](Cc1c(C(C)(C)C)[nH]c2c(C(C)(C)C)cc(C(C)(C)C)cc12)NC(=O)[C@@H](N)CCCNC(=N)N` [Compound 11], for which, in the data set with S. pyogenes, the “S. pyogenes (MIC)” value turned out to be 6 mg/L. Besides, the “MRSA (MIC)” value in data set [3] (Table 5, strain ATCC 33591) came out at 4 mg/L. Besides, the “P. aeruginosa (MIC)” value with P. aeruginosa is recorded as greater than 100 mg/L. Besides, in data set [4] (Table 5, strain ATCC 27626), the “MRSE (MIC)” value stood at 4 mg/L. Also, the “C. albicans (MIC)” value with C. albicans is greater than 100 mg/L. Moreover, in [5] (Table 5, strain ATCC 25923), the “S. aureus (MIC)” value stood at 5 mg/L. In the data set with E. coli, the “E. coli (MIC)” value is greater than 100 mg/L.
Consider `CC(C)CNC(=O)[C@H](CCCNC(=N)N)NC(=O)[C@H](Cc1c(C(C)(C)C)[nH]c2c(C(C)(C)C)cc(C(C)(C)C)cc12)NC(=O)[C@@H](N)CCCNC(=N)N` [Compound 12], for which the “S. pyogenes (MIC)” value in the data set with S. pyogenes was determined as 2 mg/L. In addition, the “MRSA (MIC)” value in data set [3] (ATCC 33591) is 3 mg/L. Moreover, the “MRSE (MIC)” value in [4] (ATCC 27626) is 2 mg/L. In addition, the “C. albicans (MIC)” value with C. albicans is 10 mg/L. Moreover, in [5] (ATCC 25923), the “S. aureus (MIC)” value is reported as less than 2 mg/L.
For the molecule `CC(C)(C)c1cc(C(C)(C)C)c2[nH]c(C(C)(C)C)c(C[C@H](NC(=O)[C@@H](N)CCCNC(=N)N)C(=O)N[C@@H](CCCNC(=N)N)C(=O)NC3CCCCC3)c2c1` [Compound 13], the “S. pyogenes (MIC)” value in the data set with S. pyogenes is given as less than 2 mg/L. Moreover, the “MRSA (MIC)” value in [3] (ATCC 33591) was determined as 2 mg/L. For the same molecule, the “MRSE (MIC)” value in [4] (ATCC 27626) came out at 2 mg/L. Besides, the “C. albicans (MIC)” value in the data set on C. albicans came out at 10 mg/L. For the same molecule, in data set [5] (ATCC 25923), the “S. aureus (MIC)” value is on record as less than 2 mg/L.
`CC(C)(C)c1cc(C(C)(C)C)c2[nH]c(C(C)(C)C)c(C[C@H](NC(=O)[C@@H](N)CCCNC(=N)N)C(=O)N[C@@H](CCCNC(=N)N)C(=O)NC3CCCC3)c2c1` [Compound 14]: the “S. pyogenes (MIC)” value in the data set with S. pyogenes amounted to 2 mg/L. Also, the “MRSA (MIC)” value in data set [3] (ATCC 33591) is reported as greater than 15 mg/L. Moreover, the “MRSE (MIC)” value in data set [4] (ATCC 27626) is recorded as less than 2 mg/L. Moreover, the “C. albicans (MIC)” value with C. albicans stood at 10 mg/L. The “S. aureus (MIC)” value in data set [5] (ATCC 25923) is on record as less than 2 mg/L.

For the origin of these results see patent publication US20230338609A1, “MEDICAL DEVICES AND MATERIALS COMPRISING BIODEGRADABLE POLYESTERS” (AMICOAT AS, priority 2020, published 2023).
